Values joined by “and” are separate entries in the source; they are usually repeats but may differ in a detail not shown here. Equal values may be shown once. “Also recorded” adds a separate entry of the source.
Key:
ALDH1A1 [1] = target: T1, ALDH1A1 (Homo sapiens, UniProt P00352); experiment: ALDH isoform selectivity of red probes: ALDH1A1; format: biochemical
T1 construct: made in house
T1 sequence (P00352 1-501): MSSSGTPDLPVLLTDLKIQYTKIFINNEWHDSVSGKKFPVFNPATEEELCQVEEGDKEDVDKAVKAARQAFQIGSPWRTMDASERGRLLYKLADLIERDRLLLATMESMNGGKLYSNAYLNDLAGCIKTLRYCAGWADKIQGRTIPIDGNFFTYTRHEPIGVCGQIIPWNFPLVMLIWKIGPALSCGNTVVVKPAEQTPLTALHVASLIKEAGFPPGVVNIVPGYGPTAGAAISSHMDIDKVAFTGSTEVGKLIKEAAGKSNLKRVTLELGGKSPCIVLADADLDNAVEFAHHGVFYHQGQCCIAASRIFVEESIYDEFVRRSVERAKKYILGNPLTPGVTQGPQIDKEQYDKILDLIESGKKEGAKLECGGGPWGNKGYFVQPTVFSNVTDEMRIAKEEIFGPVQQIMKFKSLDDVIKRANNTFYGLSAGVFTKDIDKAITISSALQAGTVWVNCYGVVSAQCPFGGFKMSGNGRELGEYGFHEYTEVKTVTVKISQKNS
Procedure: Each ALDH isoform was added to a 50 mM triethanolamine solution (pH 7.4) containing 2.0 mM NAD^+ and 100 μM substrate at room temperature. Benzaldehyde was the substrate for ALDH3A1. Propanal was the substrate for all other isoforms. ALDH isoform activity was determined by monitoring the rate of NADH production through the increase in absorbance at 340 nm (ε=6220 M^−1cm^−1). For these assays, 1 unit is defined as the amount of enzyme that catalyzes the conversion of […] per minute. For every combination of dye and enzyme, 2 μM dye was preincubated with 2.0 mM NAD^+ in 50 mM triethanolamine solution (pH 7.4). The reaction was initiated by addition of 1 unit of ALDH. Dyes were excited at 590 nm, and fluorescence was measured continuously at 610 nm.

K562 cells = experiment: Flow cytometry of K562 cells with red-AlDeSense; format: cell-based, human; conditions: 1 μM dye
Procedure: For all cell lines, 200,000 cells in a single-cell suspension were transferred into 1.5 mL Eppendorf tubes. Cells were pelleted by centrifugation at 400 g for 5 minutes at room temperature. After removing the supernatant by aspiration, cells were resuspended in 300 μL premixed PBS supplemented with verapamil, probenecid, and novobiocin. […] Samples were immediately stored on ice. Cells were stained with red-AlDeSense or Ctrl-red-AlDeSense (100 μL of 4 μM dye solution; dyes were normalized by fluorescence spectroscopy). Samples were analyzed on a BD LSR II Flow Cytometry Analyzer using a 488 nm laser and a 550 LP and 610/30 filter set. Samples were analyzed every 5 minutes for 15 minutes, with the samples being placed back on ice between data collection. Data were analyzed on FCS Express 6.04.

Log D7.4 = format: physicochemical; conditions: pH 7.4
ALDH1A1 [2] = target: T1, ALDH1A1; experiment: Fluorescence turn-on of AlDeSense with recombinant ALDH1A1; format: biochemical; conditions: fluorescent enhancement when treated with ALDH1A1; 1 μM probe
Procedure: Activation of AlDeSense was assessed using 20 units of each ALDH isoform. Activity was determined by activity measurements using each isoform's preferred substrate (1 unit=1 μmol substrate turned over/mol enzyme/min). Further details are in the supplementary information. All enzymatic reactions were performed in 50 mM triethanolamine buffer (pH 7.4, Thermo Fisher) with 2.5 mM NAD+(Alfa Aesar) and 5% v/v DMSO (Thermo Fisher) in a 1 mL quartz cuvette at room temperature.
AlDeSense activation was determined using fluorescence. Immediately before measurement, AlDeSense (1 μM) was added to a quartz cuvette. After vigorous mixing, the reaction was monitored at room temperature for 15 min. Fluorescence spectra were acquired according to following parameters: λex=498 nm, and emission range=505-580 nm. All scans were normalized to the signal from AlDeSense in 50 mM TEA and 2.5 mM NAD+(without enzyme). Endpoint measurements at 15 min were performed in triplicate and reported as the averages±standard deviation.

[3] = test system: panel of the most common ALDH isoforms; experiment: AlDeSense isoform selectivity assay; format: biochemical, human; conditions: 20 units of each isoform, 1 μM AlDeSense
Procedure: The activity of each isoform of ALDH was confirmed by monitoring the production of NADH at 340 nm when incubated with the most commonly used substrate for that enzyme (propionaldehyde for ALDH1A1, ALDH1A2, ALDH1A3, ALDH2 and ALDH4A1; benzaldehyde for ALDH3A1, and succinic semialdehyde for ALDH5A1). Each isoform was diluted with 50 mM triethanolamine (TEA, pH 7.4) to a final concentration of 1 μM and placed in a 1 mL quartz cuvette. Directly before measurement, NAD^+ was added to final concentration of 2.5 mM and the preferred substrate was added to a final concentration of 1 mM. Absorbance spectra were taken from 300 to 500 nm every half minute for 15 minutes. Units of activity for each enzyme were calculated from the slope of absorbance increase at 340 nm over time, (1 unit=1 μmol substrate turned over/[…]/min).
Activation of AlDeSense was assessed using 20 units of each ALDH isoform. Activity was determined by activity measurements using each isoform's preferred substrate (1 unit=1 μmol substrate turned over/mol enzyme/min). Further details are in the supplementary information. […]
AlDeSense activation was determined using fluorescence. […] After vigorous mixing, the reaction was monitored at room temperature for 15 min. Fluorescence spectra were acquired according to following parameters: λex=498 nm, and emission range=505-580 nm. […]

MDA-MB-231 mammospheres = experiment: Mammosphere culture and imaging; format: cell-based; conditions: 2 μM dye
Procedure: Mammosphere formation from MDA-MB-231 breast cancer cells was performed as described previously with some modifications. Cells were resuspended and diluted to a density of 2000 cells/mL in DMEM/F12 (Sigma-Aldrich) supplemented with 2% B27 supplement (Thermo Fisher), 40 ng/mL rhFGF-2 (Miltenyi Biotec), and 20 ng/mL rhEGF (Gibco®). They were plated in ultra-low attachment 6-well plates (Corning) and incubated at 37° C. and 5% CO2 for 5 days or until most mammospheres were between […]. At this point, the mammospheres were transferred to a 4-well chamber slide coated with Poly-L-lysine as described previously. The mammospheres were then either immediately imaged with AlDeSense or Ctrl-AlDeSense, or the media was exchanged with full DMEM media supplement with 10% FBS and non-essential amino acids to allow differentiation over 36 hours.
At various time points, the mammospheres were stained with 2 μM AlDeSense or Ctrl-AlDeSense as described above. Staining continued for 1 h at room temperature before imaging with a wide field fluorescence microscope (Zeiss Axiovert 200M). A GFP filter set was used to excite the fluorophores. Exposure times were set equally for all images taken within a data set and configured to give low signal in Ctrl-AlDeSense stained tumorspheres. Only mammospheres greater than 50 μm in diameter were considered in the analysis.

Compound	turn-on response when treated with ALDH1A1 (ALDH1A1 [1])	Enzyme Activity 1A1 (ALDH1A1 [1]; Table 2)	Enzymatic Turn On (ALDH1A1 [1]; Table 2, ALDH1A1, 2 μM dye)	K562 cells with high ALDH1A1 activity (K562 cells)	logD (Log D7.4)	Turn-on (fold) (ALDH1A1 [2])	cross-reactivity against panel of ALDH isoforms [3]	brightness of mammospheres versus Ctrl-AlDeSense (MDA-MB-231 mammospheres)
Cc1cc(C=O)c(F)c(F)c1C1=C2C=CC(=O)C=C2[Si](C)(C)c2cc(O)ccc21	3.2 fold	High	3.2	39.0±8.3%	–	–	–	–
Cc1cc(C=O)ccc1-c1c2cc(F)c(=O)cc-2oc2cc(O)c(F)cc12 [AlDeSense]	–	–	–	–	0.88	20 fold and 20.0 fold	only ALDH1A1 led to probe activation; also recorded: did not observe cross-reactivity; also recorded: selective for only the ALDH1A1 isoform	3 fold
